A short description of data set [1]: logP by HPLC on reversed-phase column (C 18), EEC Directive 79/831 Annex V.A8. The class given is physicochemical. The protocol:
In table 1, the logP values were determined in accordance with EEC Directive 79/831 Annex V.A8 by HPLC (High Performance Liquid Chromatography) on a reversed-phase column (C 18), using the method described below: Temperature: 40° C.; […]

A further data set deals with Alternaria solani. Kind of data set: In vivo preventive test on Alternaria solani (tomato). The following applies: 500 ppm of active ingredient, evaluated 7 days after inoculation. From the text:
One day after this treatment, the plants are inoculated with an aqueous spore suspension of Alternaria solani.

The test system of another data set is Pyrenophora teres. Description: In vivo preventive test on Pyrenophora teres (barley). The following applies: 500 ppm of active ingredient, evaluated 7-9 days after inoculation. From the text:
One day after this treatment, the plants are inoculated with an aqueous spore suspension of Pyrenophora teres.

Another data set relates to aflatoxines production. Kind of data set: microbe, parasite or virus in culture. The class given is cell-based, Aspergillus parasiticus. To be noted: 50 μM.
In a further data set the test system is Fusarium graminearum. Kind of data set: microbe, parasite or virus in culture. The class given is cell-based. To be noted: 50 μM.

As usually defined, the logP is a log measure of how a compound divides between an organic and an aqueous phase. Read a high logP as higher lipophilicity. In turn, `CC(CNC(=O)c1c(C(F)F)nn(C)c1F)c1cccc(Cl)c1` (stereo not drawn) [Example 51] showed a lipophilicity (logP) in data set [1] of 3.02. Also, the Efficacy in the data set with Alternaria solani and in the data set on Pyrenophora teres was 100% throughout. For the same molecule, the “% Inhibition of Aflatoxin at 50 μM” value in the data set on aflatoxines production amounted to 100%. For the same molecule, the “% Inhibition of fungal growth at 50 μM” value with Fusarium graminearum is 100%.
Molecule `Cn1nc(C(F)F)c(C(=O)NCCc2csc3c2CCCC3)c1Cl` [Example 169] came in with a logP in data set [1] of 3.52. In addition, the Efficacy in the data set on Alternaria solani stood at 80%; with Pyrenophora teres it was 100%. For the same molecule, in the data set on aflatoxines production, the “% Inhibition of Aflatoxin at 50 μM” value was 91%. Further, the “% Inhibition of fungal growth at 50 μM” value in the data set with Fusarium graminearum was found to be 75%.
`CC(CNC(=O)c1c(C(F)F)nn(C)c1F)c1c(F)cccc1F` (stereo not drawn) [Example 30] yielded a logP in data set [1] of 2.78. Further, the Efficacy with Alternaria solani and in the data set on Pyrenophora teres was 100% throughout. In addition, the “% Inhibition of Aflatoxin at 50 μM” value with aflatoxines production turned out to be 100%. In the data set on Fusarium graminearum, the “% Inhibition of fungal growth at 50 μM” value worked out at 98%.
For `CC(CNC(=O)c1c(C(F)F)nn(C)c1Cl)c1cc(Cl)cc(Cl)c1` (stereo not drawn) [Example 112], the logP in data set [1] is 3.73. In addition, the Efficacy with Alternaria solani amounted to 95%; in the data set with Pyrenophora teres it was 100%. The “% Inhibition of Aflatoxin at 50 μM” value in the data set on aflatoxines production came to 100%. The “% Inhibition of fungal growth at 50 μM” value with Fusarium graminearum was 83%.
The molecule `CN(CCc1cc(Cl)ccc1Cl)C(=O)c1c(C(F)F)nn(C)c1F` [Example 94] had a logP in data set [1] of 3.17. Besides, the Efficacy with Alternaria solani and in the data set with Pyrenophora teres was 100% throughout. The “% Inhibition of Aflatoxin at 50 μM” value in the data set with aflatoxines production worked out at 100%. Besides, the “% Inhibition of fungal growth at 50 μM” value with Fusarium graminearum came out at 100%.
`CC(CNC(=O)c1c(C(F)F)nn(C)c1Cl)c1cccc(C(F)(F)F)c1` (stereo not drawn) [Example 125] registered a logP in data set [1] of 3.35. For the same molecule, the Efficacy with Alternaria solani is on record as 95%; in the data set on Pyrenophora teres it was 100%. Further, in the data set with aflatoxines production, the “% Inhibition of Aflatoxin at 50 μM” value came to 99%. In addition, the “% Inhibition of fungal growth at 50 μM” value in the data set on Fusarium graminearum is recorded as 78%.
Taken in the same sequence, the figures for `Cn1nc(C(F)F)c(C(=O)NC[Si](C)(C)c2cc(Cl)cc(Cl)c2)c1F` [Example 244] were 4.08, 100%, 95%, 100% and 100%.
On the same counts, the results for `CC(CN(C(=O)c1c(C(F)F)nn(C)c1Cl)C1CC1)c1ccccc1` (stereo not drawn) [Example 14] are 3.31, 100%, 100%, 100% and 100%.
Taken in the same sequence, the figures for `CC(c1ccccc1Cl)C(C)N(C(=O)c1c(C(F)F)nn(C)c1Cl)C1CC1` (stereo not drawn) [Example 42] were 4.08, 80%, 100%, 100% and 84%.
On to `CN(CCc1ccccc1Cl)C(=O)c1c(C(F)F)nn(C)c1F` [Example 35], for which the logP in data set [1] was found to be 2.76. Moreover, the Efficacy in the data set with Alternaria solani and in the data set with Pyrenophora teres was 100% in each case. For the same molecule, the “% Inhibition of Aflatoxin at 50 μM” value with aflatoxines production is listed as 100%. Also, the “% Inhibition of fungal growth at 50 μM” value in the data set with Fusarium graminearum was 100%.
In data set [1], `CC(CNC(=O)c1c(C(F)F)nn(C)c1F)c1ccc(Cl)cc1Cl` (stereo not drawn) [Example 84] yielded a logP of 3.46. The Efficacy is given as 95% with Alternaria solani and 100% with Pyrenophora teres. Also, in the data set on aflatoxines production, the “% Inhibition of Aflatoxin at 50 μM” value is on record as 100%. Further, in the data set on Fusarium graminearum, the “% Inhibition of fungal growth at 50 μM” value was 100%.
Take `Cn1nc(C(F)F)c(C(=O)NCCc2ccsc2Br)c1Cl` [Example 165]: the logP in data set [1] was found to be 2.82. In addition, the Efficacy worked out at 90% with Alternaria solani and 95% in the data set on Pyrenophora teres. For the same molecule, the “% Inhibition of Aflatoxin at 50 μM” value with aflatoxines production is given as 99%. The “% Inhibition of fungal growth at 50 μM” value in the data set with Fusarium graminearum amounted to 81%.
Taken in the same sequence, the figures for `Cn1nc(C(F)F)c(C(=O)NCC(c2cccs2)C(F)(F)F)c1Cl` (stereo not drawn) [Example 162] were 2.92, 100%, 95%, 98% and 80%.
On the same counts, the results for `Cc1c(CCNC(=O)c2c(C(F)F)nn(C)c2Cl)sc2ccccc12` [Example 172] are 3.46, 100%, 100%, 100% and 85%.
Molecule `Cn1nc(C(F)F)c(C(=O)N(CCc2ccccc2)C2CC2)c1Cl` [Example 12] gave a log partition coefficient (logP) in data set [1] of 3.06. The Efficacy in the data set on Alternaria solani and with Pyrenophora teres was 100% in each case. In addition, the “% Inhibition of Aflatoxin at 50 μM” value in the data set with aflatoxines production is on record as 100%. Further, in the data set with Fusarium graminearum, the “% Inhibition of fungal growth at 50 μM” value is given as 92%.
Regarding `Cn1nc(C(F)F)c(C(=O)NCCc2c(Cl)cccc2Cl)c1F` [Example 117], the logP in data set [1] is recorded as 3.00. Also, the values for the Efficacy in the data set with Alternaria solani and in the data set with Pyrenophora teres were 95% and 100%, respectively. The “% Inhibition of Aflatoxin at 50 μM” value in the data set on aflatoxines production is 100%. Besides, in the data set with Fusarium graminearum, the “% Inhibition of fungal growth at 50 μM” value worked out at 100%.
Take `Cn1nc(C(F)F)c(C(=O)N(C[Si](C)(C)c2ccsc2)C2CC2)c1Cl` [Example 247]: the logP in data set [1] was 3.71. Further, the results for the Efficacy in the data set with Alternaria solani and in the data set on Pyrenophora teres were 94% and 100%, respectively. In addition, the “% Inhibition of Aflatoxin at 50 μM” value in the data set with aflatoxines production came out at 100%. In addition, the “% Inhibition of fungal growth at 50 μM” value in the data set on Fusarium graminearum is reported as 100%.
The molecule `Cn1nc(C(F)F)c(C(=O)NCCc2cc(Cl)ccc2Cl)c1Cl` [Example 91] had a logP in data set [1] of 3.29. The Efficacy with Alternaria solani was 95%; in the data set on Pyrenophora teres, 100%. Besides, the “% Inhibition of Aflatoxin at 50 μM” value in the data set with aflatoxines production is on record as 100%. Moreover, the “% Inhibition of fungal growth at 50 μM” value with Fusarium graminearum came out at 100%.
The molecule `CC(Cc1ccc(Oc2ccccc2)cc1)NC(=O)c1c(C(F)F)nn(C)c1Cl` (stereo not drawn) [Example 154] showed a logP in data set [1] of 3.83. Besides, the Efficacy in the data set on Alternaria solani and in the data set on Pyrenophora teres was 100% each time. In addition, in the data set with aflatoxines production, the “% Inhibition of Aflatoxin at 50 μM” value is 99%. Also, the “% Inhibition of fungal growth at 50 μM” value with Fusarium graminearum is reported as 80%.
Take `CC(CNC(=O)c1c(C(F)F)nn(C)c1F)c1ccccc1Cl` (stereo not drawn) [Example 39]: the logP in data set [1] is recorded as 2.94. The Efficacy in the data set with Alternaria solani and in the data set on Pyrenophora teres was 100% each time. Besides, the “% Inhibition of Aflatoxin at 50 μM” value with aflatoxines production came out at 100%. For the same molecule, in the data set on Fusarium graminearum, the “% Inhibition of fungal growth at 50 μM” value came out at 100%.
In data set [1], `Cc1ccsc1CCNC(=O)c1c(C(F)F)nn(C)c1Cl` [Example 163] returned a logP of 2.68. Besides, the figures for the Efficacy in the data set with Alternaria solani and in the data set with Pyrenophora teres were 90% and 95%, respectively. In addition, the “% Inhibition of Aflatoxin at 50 μM” value in the data set with aflatoxines production is 98%. In the data set with Fusarium graminearum, the “% Inhibition of fungal growth at 50 μM” value is listed as 80%.
On the same counts, the results for `Cn1nc(C(F)F)c(C(=O)NCCc2ccc(Oc3ccccc3)cc2)c1F` [Example 152] are 3.41, 95%, 100%, 100% and 82%.
Taken in the same sequence, the figures for `Cc1cc(C)c(CCN(C)C(=O)c2c(C(F)F)nn(C)c2F)c(C)c1` [Example 135] were 3.48, 95%, 95%, 100% and 96%.
Taken in the same sequence, the figures for `Cn1nc(C(F)F)c(C(=O)NC[Si](C)(C)c2cc(Cl)cc(Cl)c2)c1Cl` [Example 243] were 4.27, 95%, 100%, 99% and 84%.
In data set [1], `CN(CCc1ccccc1C(F)(F)F)C(=O)c1c(C(F)F)nn(C)c1F` [Example 123] showed a logP of 3.00. Besides, the values for the Efficacy in the data set on Alternaria solani and in the data set on Pyrenophora teres were 100% and 95%, respectively. The “% Inhibition of Aflatoxin at 50 μM” value with aflatoxines production was 100%. In addition, in the data set on Fusarium graminearum, the “% Inhibition of fungal growth at 50 μM” value stood at 100%.
For `Cn1nc(C(F)F)c(C(=O)NCCc2cc(Cl)cc(Cl)c2)c1Cl` [Example 105], in data set [1], the logP is on record as 3.42. The Efficacy in the data set with Alternaria solani amounted to 95%; in the data set on Pyrenophora teres, 94%. In addition, the “% Inhibition of Aflatoxin at 50 μM” value with aflatoxines production is given as 100%. Further, the “% Inhibition of fungal growth at 50 μM” value in the data set on Fusarium graminearum turned out to be 95%.
`CC(Cc1cccc(Oc2ccccc2)c1)NC(=O)c1c(C(F)F)nn(C)c1F` (stereo not drawn) [Example 146] had a logP in data set [1] of 3.64. The Efficacy was determined as 95% in the data set with Alternaria solani and 100% in the data set with Pyrenophora teres. The “% Inhibition of Aflatoxin at 50 μM” value in the data set with aflatoxines production is listed as 100%. Further, the “% Inhibition of fungal growth at 50 μM” value in the data set on Fusarium graminearum was found to be 83%.
`CN(CCc1ccc(F)cc1)C(=O)c1c(C(F)F)nn(C)c1F` [Example 22] returned a logP in data set [1] of 2.50. Further, the Efficacy in the data set with Alternaria solani and with Pyrenophora teres was 100% each time. Besides, the “% Inhibition of Aflatoxin at 50 μM” value with aflatoxines production worked out at 100%. Moreover, the “% Inhibition of fungal growth at 50 μM” value in the data set with Fusarium graminearum is 100%.
`Cn1nc(C(F)F)c(C(=O)NCCc2cc(Cl)cc(Cl)c2)c1F` [Example 103] registered a logP in data set [1] of 3.25. Besides, the values for the Efficacy with Alternaria solani and in the data set on Pyrenophora teres were 90% and 100%, respectively. For the same molecule, the “% Inhibition of Aflatoxin at 50 μM” value in the data set on aflatoxines production came to 100%. The “% Inhibition of fungal growth at 50 μM” value with Fusarium graminearum turned out to be 99%.
In data set [1], `Cn1nc(C(F)F)c(C(=O)NC[Si](C)(C)c2ccccc2)c1Cl` [Example 227] showed a lipophilicity (logP) of 3.31. Further, the Efficacy in the data set with Alternaria solani was determined as 95%; with Pyrenophora teres, 100%. In addition, the “% Inhibition of Aflatoxin at 50 μM” value in the data set on aflatoxines production was 87%. In the data set on Fusarium graminearum, the “% Inhibition of fungal growth at 50 μM” value was found to be 71%.

The values are drawn from patent publication US9232799B2, “N-[(het)arylethyl)] pyrazole(thio)carboxamides and their heterosubstituted analogues” (BAYER INTELLECTUAL PROPERTY GMBH, priority 2010, dated 2016).
